Test results from article PMC6767236, “Selective Cannabinoid 2 Receptor Agonists as Potential Therapeutic Drugs for the Treatment of Endotoxin-Induced Uveitis” (Molecules, 2019).

How the values were obtained:
human CB1R = target: T1, human CB1R (Homo sapiens, UniProt P21554); assay: cAMP assay, CHO cells expressing human CB1R; assay type: cell-based; details: read-out: hCB1R: cAMP EC50
T1 construct: host or cells: CHO
Description: The effect of ligands on the forskolin-stimulated accumulation of cAMP was determined using the LANCE ULTRA cAMP kit as per the manufacturer’s instruction (Perkin-Elmer Life Sciences, Boston, MA, USA).
For human CB2R and CB1R, cAMP assays were performed using CHO cells stably expressing human CB2R or human CB1R (DiscoveRx, Fremont, CA, USA) using a cAMP-Nano-TRF detection kit (Roche Diagnostics, Penzberg, Germany). Cells were seeded 17–24 h prior to the experiment at a density of 3 × 10^4 cells per well in a black 96-well plate with clear flat bottom (Corning, Wiesbaden, Germany) and incubated in 5% CO2 at 37 °C in a humidified incubator. The growth medium was exchanged with Krebs Ringer bicarbonate buffer with 1 mmol/L 3-isobutyl-1-methylxanthine (IBMX), 0.1% fatty acid-free BSA and incubated at 30 °C for 60 min. Agonist was added to a final assay volume of 100 μL and the mixture was incubated for 30 min at 30 °C. The assay was stopped by the addition of 50 μL 3 × lysis reagent and shaken for 2 h at room temperature. The time-resolved fluorescence energy transfer was measured using an LF502 Nanoscan FLT (IOM, Berlin, Germany), equipped with a laser as excitation source. cAMP content was determined from the function of a standard curve spanning from 10 to 0.13 nmol/L cAMP. Efficacies are expressed as percent relative to 1 µM CP55940.

[1] = tested on: leukocyte-endothelial adhesion in the iridial microcirculation; assay: Endotoxin-induced uveitis (EIU), intravital microscopy, CB2R-/- mice; assay type: in vivo; details: topical 1.5% w/v, 6 h after LPS
Source text: Male BALB/c wild-type (WT; 25-30 g; Charles River, QC, Canada) and age-matched (6–8 weeks) CB2R knockout mice (CB2R^-/-) were used for experiments. CB2R^-/- mice were obtained by crossing male C57BL/6J CB2R^-/- mice (strain B6.129P2-Cnr2tm1Dgen/J; Jackson Laboratory, Bar Harbor, ME, USA) with inbred BALB/c female mice (Charles River) for ten generations. Heterozygote mice from separate parents were then bred for a homozygote knock-out of the CB2R^-/-. CB2R^-/- was confirmed via genotyping using DNA extracted from ear punches and the Accustart II Mouse Genotyping Kit (Quanta Biosciences, MD, USA). […]
IVM was conducted as previously described in Toguri et al. (2014). […] The iridial microcirculation was observed using an Olympus OV100 Small Animal Imaging System (Olympus, Tokyo, Japan), which contains an MT-20 light source, fluorescence excitation from a xenon lamp (150 W) and an excitation filter for rhodamine-6G (excitation 515–560 nm, emission 590 nm). Images were captured in real-time by a black and white DP70 CCD C-mount camera and digitally recorded using HCImage software (Hamamatsu, Herrsching, Germany).
During IVM animals were placed on a heating pad in a stereotactic frame, and Tear-Gel® (Novartis Pharmaceuticals Canada Inc., Dorval, QC, Canada) was applied to their cornea. […] Two to four videos of each quadrant were recorded for 30 s each. […]

pKa = assay type: physicochemical; details: read-out: pKa (basic)

T1 sequence (P21554 whole entry): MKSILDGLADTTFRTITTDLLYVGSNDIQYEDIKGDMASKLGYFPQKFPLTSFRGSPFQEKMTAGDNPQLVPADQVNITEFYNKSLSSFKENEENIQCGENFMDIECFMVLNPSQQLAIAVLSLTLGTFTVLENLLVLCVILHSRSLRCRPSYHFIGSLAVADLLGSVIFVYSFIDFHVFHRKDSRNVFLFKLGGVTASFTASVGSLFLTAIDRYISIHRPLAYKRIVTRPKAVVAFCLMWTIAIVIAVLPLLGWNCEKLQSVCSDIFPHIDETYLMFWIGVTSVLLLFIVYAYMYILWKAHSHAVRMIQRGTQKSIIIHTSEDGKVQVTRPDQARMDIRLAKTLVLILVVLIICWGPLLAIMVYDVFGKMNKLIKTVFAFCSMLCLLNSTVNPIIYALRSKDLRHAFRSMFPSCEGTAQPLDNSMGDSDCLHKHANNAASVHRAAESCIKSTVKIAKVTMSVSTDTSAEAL

SMILES | EC50 (human CB1R) [µM] | leukocyte adherence in CB2R-/- mice with EIU [1] | pKa (pKa)
CNC(=O)[C@@H](NC(=O)c1cc(OCC2(C)COC2)c(C2CC2)cn1)C(C)(C)C [RO6851228, 5-Cyclopropyl-N-[(2S)-3,3-dimethyl-1-(methylamino)-1-oxobutan-2-yl]-4-[(3-methyloxetan-3-yl)methoxy]pyridine-2-carboxamide] | > 10 | – | –
CC(C)(C)c1nc(N2CC[C@H](O)C2)c2nnn(Cc3nnnn3C3CC3)c2n1 [RO6871304, (3S)-1-{5-tert-butyl-3-[(1-cyclopropyl-1H-tetrazol-5-yl)methyl]-3H-[1,2, 3]triazolo[4,5-d]pyrimidin-7-yl}pyrrolidin-3-ol] | – | no significant reduction in leukocyte adherence | 2.7
